Data from patent publication US6737383B1, “Herbicidal oxadiazolidines” (priority 1999, dated 2004).

Experiments:
wheat = assay: Test B pre/postemergence wheat; type: in vivo, Triticum aestivum; conditions: for Wheat plant response rating: scale of 0 to 10 where 0 is no effect and 10 is complete control
How it was run: (§1)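 Herbicidal effect was estimated by eye on a ten-point control scale after plants spent twelve to sixteen days in a greenhouse following soil or foliar treatment. Foliar sprays targeted plants at one to four leaves; all doses were formulated in a non-phytotoxic solvent with surfactant.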

blackgrass = assay: Test B pre/postemergence blackgrass; type: in vivo, Alopecurus myosuroides; conditions: for Blackgrass plant response rating: scale of 0 to 10 where 0 is no effect and 10 is complete control
How it was run: as §1

bedstraw = assay: Test B pre/postemergence bedstraw; type: in vivo, Galium aparine; conditions: Rate 500 g/ha, scale of 0 to 10 where 0 is no effect and 10 is complete control
How it was run: as §1

smallflower flatsedge = assay: Test B flood test smallflower flatsedge; type: in vivo, Cyperus difformis
How it was run: (§2)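 Plants were grown to the 2-leaf stage before treatment with test chemical, then held in a greenhouse for twelve to sixteen days. Injury was visually rated against untreated controls on a 0–10 scale, where 0 is no effect and 10 is complete control.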

crabgrass = assay: Test B pre/postemergence crabgrass; type: in vivo, Digitaria sanguinalis; conditions: for Crabgrass plant response rating: scale of 0 to 10 where 0 is no effect and 10 is complete control
How it was run: as §1

duck salad = assay: Test B flood test duck salad; type: in vivo, Heteranthera limosa
How it was run: as §2

purple nutsedge = assay: Test B pre/postemergence purple nutsedge; type: in vivo, Cyperus rotundus; conditions: for Nutsedge plant response rating: scale of 0 to 10 where 0 is no effect and 10 is complete control
How it was run: as §1

rice = assay: Test B flood test rice; type: in vivo, Oryza sativa
How it was run: as §2

giant foxtail = assay: Test B pre/postemergence giant foxtail; type: in vivo, Setaria faberii; conditions: for Giant foxtail plant response rating: scale of 0 to 10 where 0 is no effect and 10 is complete control
How it was run: as §1

surinam grass = assay: Test B pre/postemergence surinam grass; type: in vivo, Brachiaria decumbens; conditions: for B. signalgrass plant response rating: scale of 0 to 10 where 0 is no effect and 10 is complete control
How it was run: as §1

pigweed = assay: Test B pre/postemergence pigweed; type: in vivo, Amaranthus retroflexus; conditions: for Redroot pigweed plant response rating: scale of 0 to 10 where 0 is no effect and 10 is complete control
How it was run: as §1

velvetleaf = assay: Test B pre/postemergence velvetleaf; type: in vivo, Abutilon theophrasti; conditions: for Velvetleaf plant response rating: scale of 0 to 10 where 0 is no effect and 10 is complete control
How it was run: as §1

soybean = assay: Test B pre/postemergence soybean; type: in vivo, Glycine max; conditions: for Soybean plant response rating: scale of 0 to 10 where 0 is no effect and 10 is complete control
How it was run: as §1

morningglory = assay: Test B pre/postemergence morningglory; type: in vivo, Ipomoea hederacea; conditions: for Morningglory plant response rating: scale of 0 to 10 where 0 is no effect and 10 is complete control
How it was run: as §1

wild oat = assay: Test B pre/postemergence wild oat; type: in vivo, Avena fatua; conditions: for Wild oats plant response rating: scale of 0 to 10 where 0 is no effect and 10 is complete control
How it was run: as §1

corn = assay: Test B pre/postemergence corn; type: in vivo, Zea mays; conditions: for Corn plant response rating: scale of 0 to 10 where 0 is no effect and 10 is complete control
How it was run: as §1

[1] = Postemergence, Rate 125 g/ha, scale 0 to 10, 0 is no effect, 10 is complete control
[2] = Postemergence, Rate 250 g/ha, scale 0 to 10, 0 is no effect, 10 is complete control
[3] = Preemergence, Rate 62 g/ha, scale 0 to 10 (0 no effect, 10 complete control)
[4] = Rate 62 g/ha, flood test species, Pre-emergence, visual evaluation after twelve to sixteen days
[5] = Rate 125 g/ha, under heading Pre-emergence, flood test species, visual evaluation after twelve to sixteen days
[6] = Rate 250 g/ha, Pre-emergence, flood-test species, scale 0 to 10, 0 is no effect, 10 is complete control
[7] = Rate 500 g/ha, Pre-emergence, flood test species, scale 0 to 10 (0 no effect, 10 complete control)

CC(C)N(C(=O)n1oc(=O)n(CCC#N)c1=O)c1ccc(F)cc1 [Compound 388]
Plant response rating, Wheat (wheat; [1]): 0 | Plant response rating, Wheat (wheat; [2]): 3 | Wheat plant response rating (wheat; Postemergence, Rate 500 g/ha): 8 | Plant response rating, Wheat (wheat; [3]): 0 | Wheat plant response rating (0 to 10 scale) (wheat; Preemergence, Rate 125 g/ha): 2 | Wheat plant response rating (wheat; Preemergence, Rate 250 g/ha): 4 | Wheat plant response rating (wheat; Preemergence, Rate 500 g/ha): 8 | Wheat plant response rating (wheat; Rate 62 g/ha, Postemergence): 0 | Plant response rating, Blackgrass (blackgrass; [1]): 8 | Blackgrass plant response rating (blackgrass; Postemergence, Rate 500 g/ha): 10 | Plant response rating, Blackgrass (blackgrass; [3]): 0 | Blackgrass plant response rating (0 to 10 scale) (blackgrass; Preemergence, Rate 125 g/ha): 1 | Blackgrass plant response rating (blackgrass; Preemergence, Rate 250 g/ha): 5 | Blackgrass plant response rating (blackgrass; Preemergence, Rate 500 g/ha): 6 | Bedstraw plant response rating (bedstraw; Postemergence): 6 | Bedstraw plant response rating (bedstraw; Preemergence): 7 | Plant response rating, S. Flatsedge (0 to 10 scale, 0 is no effect, 10 is complete control) (smallflower flatsedge; [4]): 0 | S. Flatsedge plant response rating (0 to 10 scale, 0 is no effect, 10 is complete control) (smallflower flatsedge; [5]): 0 | S. Flatsedge plant response rating (smallflower flatsedge; [6]): 0 | S. Flatsedge plant response rating (smallflower flatsedge; [7]): 0 | Plant response rating, Crabgrass (crabgrass; [1]): 4 | Plant response rating, Crabgrass (crabgrass; [2]): 8 | Crabgrass plant response rating (crabgrass; Postemergence, Rate 500 g/ha): 9 | Plant response rating, Crabgrass (crabgrass; [3]): 6 | Crabgrass plant response rating (0 to 10 scale) (crabgrass; Preemergence, Rate 125 g/ha): 8 | Crabgrass plant response rating (crabgrass; Preemergence, Rate 250 g/ha): 10 | Crabgrass plant response rating (crabgrass; Preemergence, Rate 500 g/ha): 10 | Crabgrass plant response rating (crabgrass; Rate 62 g/ha, Postemergence): 4 | Plant response rating, Ducksalad (0 to 10 scale, 0 is no effect, 10 is complete control) (duck salad; [4]): 0 | Ducksalad plant response rating (0 to 10 scale, 0 is no effect, 10 is complete control) (duck salad; [5]): 0 | Ducksalad plant response rating (duck salad; [6]): 0 | Ducksalad plant response rating (duck salad; [7]): 0 | Plant response rating, Nutsedge (purple nutsedge; [2]): 5 | Nutsedge plant response rating (purple nutsedge; Postemergence, Rate 500 g/ha): 6 | Plant response rating, Nutsedge (purple nutsedge; [3]): 0 | Nutsedge plant response rating (0 to 10 scale) (purple nutsedge; Preemergence, Rate 125 g/ha): 0 | Nutsedge plant response rating (purple nutsedge; Preemergence, Rate 250 g/ha): 0 | Plant response rating, Rice (0 to 10 scale, 0 is no effect, 10 is complete control) (rice; [4]): 0 | Rice plant response rating (0 to 10 scale, 0 is no effect, 10 is complete control) (rice; [5]): 0 | Rice plant response rating (rice; [6]): 0 | Rice plant response rating (rice; [7]): 0 | Plant response rating, Giant foxtail (giant foxtail; [1]): 8 | Plant response rating, Giant foxtail (giant foxtail; [2]): 8 | Giant foxtail plant response rating (giant foxtail; Postemergence, Rate 500 g/ha): 9 | Plant response rating, Giant foxtail (giant foxtail; [3]): 8 | Giant foxtail plant response rating (0 to 10 scale) (giant foxtail; Preemergence, Rate 125 g/ha): 8 | Giant foxtail plant response rating (giant foxtail; Preemergence, Rate 250 g/ha): 10 | Giant foxtail plant response rating (giant foxtail; Preemergence, Rate 500 g/ha): 10 | Giant foxtail plant response rating (giant foxtail; Rate 62 g/ha, Postemergence): 7 | Plant response rating, B. signalgrass (surinam grass; [1]): 6 | Plant response rating, B. signalgrass (surinam grass; [2]): 8 | B. signalgrass plant response rating (surinam grass; Postemergence, Rate 500 g/ha): 8 | Plant response rating, B. signalgrass (surinam grass; [3]): 0 | B. signalgrass plant response rating (0 to 10 scale, 0 is no effect, 10 is complete control) (surinam grass; Preemergence, Rate 125 g/ha): 2 | B. signalgrass plant response rating (surinam grass; Preemergence, Rate 250 g/ha): 3 | B. signalgrass plant response rating (surinam grass; Preemergence, Rate 500 g/ha): 6 | B. signalgrass plant response rating (surinam grass; Rate 62 g/ha, Postemergence): 1 | Plant response rating, Redroot pigweed (pigweed; [1]): 0 | Plant response rating, Redroot pigweed (pigweed; [2]): 0 | Redroot pigweed plant response rating (pigweed; Postemergence, Rate 500 g/ha): 3 | Plant response rating, Redroot pigweed (pigweed; [3]): 0 | Redroot pigweed plant response rating (0 to 10 scale) (pigweed; Preemergence, Rate 125 g/ha): 0 | Redroot pigweed plant response rating (pigweed; Preemergence, Rate 250 g/ha): 6 | Redroot pigweed plant response rating (pigweed; Preemergence, Rate 500 g/ha): 10 | Redroot pigweed plant response rating (pigweed; Rate 62 g/ha, Postemergence): 0 | Plant response rating, Velvetleaf (velvetleaf; [1]): 2 | Plant response rating, Velvetleaf (velvetleaf; [2]): 2 | Velvetleaf plant response rating (velvetleaf; Postemergence, Rate 500 g/ha): 6 | Plant response rating, Velvetleaf (velvetleaf; [3]): 0 | Velvetleaf plant response rating (0 to 10 scale) (velvetleaf; Preemergence, Rate 125 g/ha): 2 | Velvetleaf plant response rating (velvetleaf; Preemergence, Rate 250 g/ha): 2 | Velvetleaf plant response rating (velvetleaf; Preemergence, Rate 500 g/ha): 6 | Velvetleaf plant response rating (velvetleaf; Rate 62 g/ha, Postemergence): 0 | Plant response rating, Soybean (soybean; [1]): 1 | Plant response rating, Soybean (soybean; [2]): 1 | Soybean plant response rating (soybean; Postemergence, Rate 500 g/ha): 1 | Plant response rating, Soybean (soybean; [3]): 0 | Soybean plant response rating (0 to 10 scale) (soybean; Preemergence, Rate 125 g/ha): 0 | Soybean plant response rating (soybean; Preemergence, Rate 250 g/ha): 0 | Soybean plant response rating (soybean; Preemergence, Rate 500 g/ha): 4 | Soybean plant response rating (soybean; Rate 62 g/ha, Postemergence): 1 | Plant response rating, Morningglory (morningglory; [1]): 3 | Plant response rating, Morningglory (morningglory; [2]): 4 | Morningglory plant response rating (morningglory; Postemergence, Rate 500 g/ha): 5 | Plant response rating, Morningglory (morningglory; [3]): 0 | Morningglory plant response rating (0 to 10 scale) (morningglory; Preemergence, Rate 125 g/ha): 0 | Morningglory plant response rating (morningglory; Preemergence, Rate 250 g/ha): 0 | Morningglory plant response rating (morningglory; Preemergence, Rate 500 g/ha): 0 | Morningglory plant response rating (morningglory; Rate 62 g/ha, Postemergence): 1 | Plant response rating, Wild oats (wild oat; [1]): 0 | Plant response rating, Wild oats (wild oat; [2]): 0 | Wild oats plant response rating (wild oat; Postemergence, Rate 500 g/ha): 6 | Plant response rating, Wild oats (wild oat; [3]): 3 | Wild oats plant response rating (0 to 10 scale) (wild oat; Preemergence, Rate 125 g/ha): 6 | Wild oats plant response rating (wild oat; Preemergence, Rate 250 g/ha): 10 | Wild oats plant response rating (wild oat; Preemergence, Rate 500 g/ha): 10 | Wild oats plant response rating (wild oat; Rate 62 g/ha, Postemergence): 0 | Plant response rating, Corn (corn; [1]): 0 | Plant response rating, Corn (corn; [2]): 0 | Corn plant response rating (corn; Postemergence, Rate 500 g/ha): 0 | Plant response rating, Corn (corn; [3]): 0 | Corn plant response rating (0 to 10 scale) (corn; Preemergence, Rate 125 g/ha): 0 | Corn plant response rating (corn; Preemergence, Rate 500 g/ha): 9 | Corn plant response rating (corn; Rate 62 g/ha, Postemergence): 0
